The METLIN SMRT retention time set (Domingo-Almenara et al. 2019)

Experiment: gradient 5% acetonitrile 3 min, to 50% in 2 min, to 85% in 15 min, held 3 min, 100 µL/min
Details: column: Zorbax Extend-C18 2.1 x 50 mm; eluents: water / acetonitrile, 0.1% formic acid
Summary of the method: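 Using water and acetonitrile that each contained 0.1% formic acid, mixtures of ~100 pure standards were separated at 100 μL/min on a Zorbax Extend-C18 column (2.1 × 50 mm, 1.8 μm). The HPLC fed a quadrupole time-of-flight mass spectrometer working in positive and negative ionization mode, with dead and dwell volumes of 40 μL and 900 μL. Data were acquired over 3 months. Retention time was read from computationally picked adduct peaks after manual inspection of each.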

SMILES	RP-LC retention time [s]
Cc1cc2c(cc1CNC(=O)Cn1c(C(F)(F)F)nc3cc4c(cc31)OCCO4)OCCCO2	851
O=C(NC1CC1)c1nc(Nc2ccc(F)cc2)c2ccccc2n1	712
COc1cccc(C(=O)CC2(O)C(=O)Nc3ccc(F)cc32)c1 (stereo not given)	707
CC(=O)N1CCc2c(-c3ccccc3)cccc2[C@H]1C	976
Cc1cc2nn(CC(=O)NCc3ccc(F)cc3)c(=O)n2c(Nc2ccccc2C)n1	977
CCn1cc(S(=O)(=O)N[C@@H]2CN(Cc3ccccn3)C[C@H]2CN(C)C)cn1	524
Cc1ccccc1NC(=O)N1CCC2(CC1)NC(=O)c1cc(F)ccc1N2C	1070
CCc1ccccc1NC(=O)c1c(O)c2cccnc2n(-c2cccc(F)c2)c1=O	1320
CCOc1ccc(-n2ccn3cc(-c4cc(OC)ccc4OC)nc3c2=O)cc1	895
CC(C)NC(=O)c1c2c(cn(-c3ccc(F)cc3)c1=O)C(=O)CC(C)(C)C2	869
Cc1nc2cccnc2n1C1CCN(C(=O)Nc2ccc(Br)cc2)CC1	669
COc1ccc(CCC(=O)Nc2nc(-c3ccc(F)cc3F)cs2)cc1	1100
Fc1ccc(-c2nc(-c3ccc4nncn4c3)no2)cc1F	822
O=C(NC1CC1)[C@@H]1C[C@H](Oc2ccccc2)CN1S(=O)(=O)c1cccc2nsnc12	828
Cc1cccc(-c2nc3nc(C)cc(N4CCN(c5ccccn5)CC4)n3n2)c1	638
COCCN(CC(=O)N1CCc2sccc2C1COc1ccccc1OC)C(=O)C(C)C (stereo not given)	845
COc1cccc(-c2ccc(=O)n(CCc3nc(-c4ccc(Br)cc4)no3)n2)c1	1110
O=C(NCCOc1ccc(F)cc1)C(=O)Nc1ccc(Cl)cn1	912
CCc1ccc(Oc2cc(N3CCC(C(=O)NC4CCCCCC4)CC3)ncn2)cc1	1110
COc1ccc2cc(C(=O)N3CCC(CC(=O)NCCc4c[nH]c5ccc(Cl)cc45)CC3)[nH]c2c1	841
COc1ccc(C(=O)CC2(O)C(=O)Nc3ccccc32)cc1 (stereo not given)	669
CC1CCN(Cc2nc(-c3ccc(N4CCSCC4)nc3)no2)CC1	672
O=C(NCc1cccs1)c1cccc2cnccc12	589

SMILES	RP-LC retention time [s]
CCc1cc(=O)n(CC(=O)N(C)c2ccccc2)c(N2CCOCC2)n1	674
CCOc1cc(C2C(C(=O)OC(C)C)=C(C)N=C3SCCC(=O)N32)ccc1OC(C)=O (stereo not given)	908
CCN1CCCC1CN(CCC(=O)N1CCNCC1)C(=O)c1ccc(C(F)(F)F)cc1 (stereo not given)	569
CCc1cc(=O)n(CC(=O)Nc2ccc(OC)c(Cl)c2)c(N2CCOCC2)n1	772
COc1ccc(OC)c(S(=O)(=O)N2CCCC(C(=O)NCCc3ccccc3)C2)c1 (stereo not given)	854
CC(=O)Nc1nc2ccc(CC(=O)N3CCN(c4ccccn4)CC3)cc2s1	570
COCCN(CC(=O)N1CCc2sccc2C1COc1cccc(F)c1)C(=O)CC(C)C (stereo not given)	976
Cc1cccn2cc(-c3cccc(S(=O)(=O)N4CCCCCC4)c3)nc12	692
O=C1C(N2CCN(S(=O)(=O)c3cccs3)CC2)CCN1Cc1cccnc1 (stereo not given)	536
O=C(C1CCCO1)N1CCC(CCOc2ccccc2F)CC1 (stereo not given)	879
O=C(c1ccc(Br)cc1)N1CCN(c2cc(-c3ccccc3)[nH]n2)CC1	849
CC(C)C(=O)Nc1ccc(CCc2nc3ccc(C(=O)NCc4ccco4)cc3[nH]2)cc1	635
CCc1ccc(NC(=O)C(=O)NCC(c2ccc3c(c2)OCO3)N2CCOCC2)cc1 (stereo not given)	613
CCOC(=O)COC(=O)c1cn(-c2ccc(C)cc2)c(=O)c2ccccc12	718
CCc1cccc(NC(=O)C2CCCN(c3cc(=O)n(C)c(=O)n3C)C2)c1 (stereo not given)	794
COc1cc(OC)cc(C(=O)N2CCC3(CC2)N=C(c2ccc(Br)cc2)C(=O)N3)c1	907
O=C(NCC1CC(=O)N(Cc2ccccc2)C1)c1cccc(Cl)c1 (stereo not given)	727
CC(C)c1noc(-c2cc(=O)n(CC(=O)Nc3ccccc3Cl)c3ccccc23)n1	1050
O=C(COc1cccc(Cl)c1)N1CCN(c2nc(CN3CCOCC3)cs2)CC1	721
Cc1cccc(Cn2c(C)c(CNCCc3ccco3)c(C(=O)O)c2C)c1	720
CCCN1C(=O)COc2ccc(-c3noc(COc4ccc(Cl)cc4)n3)cc21	1190
COc1ccc(C(=O)N2CCC3(C2)C(=O)N(C)c2ccc(OC)cc23)c(OC)c1 (stereo not given)	760
